Reference: patent publication EP0587374A2, “Sulfated sterol glycosides and their use against viral infections” (VIROSTAT (NA) NV, priority 1992, dated 1994)
Where “and” joins values, the source holds several entries; their conditions need not be identical. Equal entries are not always repeated. Where two headings read alike, the source gives them in different places.

Columns and labels:
blood clotting = conditions: 50 µg/mℓ, prothrombin time in vitro
Experimental: Prothrombin Time was measured according to standard techniques using CaCl₂, citrated-plasma and prothrombin.

[1] = for Elimination half-life: open two-compartment model
Description: Two test animals were used. […] Anaesthesia was maintained with halothane. […] Twenty-five blood samples (1.5 mℓ each) were drawn from each test animal at intervals appropriate to the pharmacokinetic modelling. […]

[2] = Experimental: The test animal received food and water without restriction.
On Tuesdays and Fridays blood samples were taken for blood chemistry, haematology and the measurement of trough plasma levels of the drug. These samples were taken prior to the administration of the drug, but at intervals as indicated in Figure 2 (which is a histogram of blood concentration levels against time) and Table 5. Blood samples were also taken 5, 10 and 15 minutes after drug adminstration in order to assess the peak plasma concentrations achieved. After 30 days the baboon was sacrificed and tissue samples were collected for testing.

[3] = test system: feline immunodeficiency virus (FIV); test: In vivo anti-FIV test in an experimentally infected cat: antibody titer, haematology, lymphocyte subsets; conditions: 5 mg/kg s.c. weekly from week 10; for WBC: pre-treatment weeks 0/6: 11.8/13.2; for CD4⁺: pre-treatment weeks 0/6: 460/350; for CD8⁺: pre-treatment weeks 0/6: 1115/721; for CD3⁺: pre-treatment weeks 0/6: 1742/1219; for Lymph.: lymphocytes, pre-treatment weeks 0/6: 2600/2380
Experimental: The substance was tested at a dosage rate of 5 mg/kg body mass on a cat infected with feline immunodeficiency virus, administered by subcutaneous injection at weekly intervals over a period of 13 weeks.
A cat which had been experimentally infected with a strain of feline immunodeficiency virus (FIV) using the blood of a naturally infected cat was used for this experiment. […] The haematological and immunological parameters were monitored during the dosage period as described below.
A specimen of blood was used to determine the antibody titer to FIV using a commercial kit (CITE Combo, Indexx Corporation, Portland). The serum was diluted with saline solution and each serum diulation was tested in order to determine the highest dilution yielding positive results. This dilution was subsequently used as the cut-off titer of positivity. The titer of antibodies was determined at regular intervals during the treatment period.
Whole blood was diluted by 50% with RPMI medium and layered on to Histopaque (Sigma) and centrifuged at 200 gravities for 25 minutes. The cells at the interface were collected and washed three times with RPMI. These cells represented the mononuclear cells of the blood and were used for determining the percentage of T-cells and the subsets thereof as described hereunder.
Cells (1 x 10⁶) were incubated in test tubes with aliquots of monoclonal antibody reactive with CD3, CD4 and CD8 antigens. The mixtures of different antibodies were conducted as follows: CD3-FITC + CD4-PE CD3-FITC + CD8-PE
The tubes were incubated for 20 minutes at room temperature and following two washes with phosphate-buffered saline solution (PBS), the cells were fixed with 400 µℓ PBS containing 0.5% formaldehyde.
Cell fluoresence was assessed using a FACScan cytometer. […] The analysis was conducted using the LYSIS II software programme after having set a lymphocyte gate on the FSC versus SSC scattergram. All the results were expressed as percentage positive lymphocytes, i.e. cells which co-expressed CD3 and CD4 or CD3 and CD8 markers. In this way, CD4⁺ T cells, and in a similar fashion, CD8⁺ NK cells, were excluded from the CD3⁺ CD8⁺ T-suppressor cells.
Absolute cell numbers were calculated from basic haematology conducted on an aliquot of the whole blood. From the percentage lymphocyte differential counts, absolute values for positive cells could be calculated. This was conducted for all subsets analyzed.

[4] = test system: Feline Infectious Peritonitis Virus
[5] = test system: Peripheral blood lymphocytes; test: In vitro cytotoxicity, Trypan Blue exclusion after 3 days of culture; conditions: for % Viability: 3 days, means of 4 counts
Experimental: Peripheral blood lymphocytes were prepared from normal blood. Cells were cultured for 3 days in complete medium [(RPMI, a commercially available so-called standard salt solution) + 10 % foetal calf serum (FCS) + […]] in the presence/absence of phytohemagglutinin (PHA). Duplicate wells were set up. Incubation was at 37°C and 5 % CO₂.
On the third day, cell viabilities were determined using the Trypan Blue exclusion test.
Those products which were water soluble, were made up at 8 mg/mℓ stocks in sterile distilled water and diluted 1:10 in RPMI medium and again diluted 1:10 directly in the wells containing the cells in complete medium. The final concentrations were thus 80 µg/mℓ. For the lower dilutions, the 8 mg/mℓ stock was diluted 1:2 or 1:4 or 1:8 in water before being diluted in the RPMI medium.
For those products which were DMSO-soluble, the stocks were made'up at 8 mg/mℓ in 100 % DMSO. This stock was diluted 1:10 in 100 % FCS and diluted 1:10 directly in the wells containing the cells in RPMI medium only. The final concentrations were thus 10 % FCS and 1 % DMSO. For the lower dilutions, the 8 mg/mℓ stock was diluted 1:2 or 1:4 or 1:8 with DMSO before the FCS dilution step.
This stock was diluted in water to yield a working stock of 2 mg/mℓ. The 2 mg/ml stock was diluted 1:20 or 1:10 or 1:5 or 1:2.5 in water and again 1:10 in the wells to give the 10, 20, 40 or 80 µg/mℓ final concentrations respectively.

[6] = haematology summary, following initial drug administration

## CC[C@H](CC[C@@H](C)[C@H]1CC[C@H]2[C@@H]3CC=C4C[C@@H](O[C@@H]5O[C@H](COS(=O)(=O)O)[C@@H](OS(=O)(=O)O)[C@H](OS(=O)(=O)O)[C@H]5OS(=O)(=O)O)CC[C@]4(C)[C@H]3CC[C@]12C)C(C)C [BSSG-(SO₄⁻)₄, β-Sitosteryl β-D-glucoside tetra-sulphate]
Blood clotting
  effect on blood clotting: did not affect blood clotting
[1]; High Dose (750 mg) i.v.
  Elimination half-life: 22 h
[1]; High Dose (750 mg), i.v. infusion 30 minutes, total dose 55.6 mg/kg
  Peak plasma concentration: 364 µg/mL
[1]; Low Dose (120 mg) i.v.
  Elimination half-life: 12 h
[1]; Low Dose (120 mg), i.v. infusion 15 minutes, total dose 7.14 mg/kg
  Peak plasma concentration: 102 µg/mL
[1]; baboon receiving the lower dose (120 mg i.v.)
  haemolysis in the blood samples: no evidence of haemolysis
[1]; high-dose test animal (750 mg i.v.)
  haemolysis in the blood samples: macroscopic evidence of haemolysis
[1]; i.v., range over the two doses (120 mg, 750 mg)
  plasma elimination half-life: 12 - 20 hours and 12 and 22 hours
[1]; intravenous administration, very high plasma concentrations
  haemodynamic effects: did not appear to be any deleterious haemodynamic effects
[2]; 5 mg/kg i.v. daily, period of treatment
  behavioral characteristics: remained unchanged
[2]; 5 mg/kg i.v. daily, sample 3-4-92 (Fri: Pre IV), trough
  BSSG-³⁵(SO₄⁻)₄ PLASMA LEVEL: 56.0 µg/mL
[2]; 5 mg/kg i.v. daily, sample 7-4-92 (Tues: Pre IV), trough
  BSSG-³⁵(SO₄⁻)₄ PLASMA LEVEL: 71.0 µg/mL
[2]; 5 mg/kg i.v. daily, sample 10-4-92 (Fri: 10 min Post IV), peak
  BSSG-³⁵(SO₄⁻)₄ PLASMA LEVEL: 149.5 µg/mL
[2]; 5 mg/kg i.v. daily, sample 10-4-92 (Fri: Pre IV), trough
  BSSG-³⁵(SO₄⁻)₄ PLASMA LEVEL: 52.5 µg/mL
[2]; 5 mg/kg i.v. daily, sample 14-4-92 (Tues: 15 min Post IV), peak
  BSSG-³⁵(SO₄⁻)₄ PLASMA LEVEL: 149.7 µg/mL
[2]; 5 mg/kg i.v. daily, sample 14-4-92 (Tues: Pre IV), trough
  BSSG-³⁵(SO₄⁻)₄ PLASMA LEVEL: 65.0 µg/mL
[2]; 5 mg/kg i.v. daily, sample 15-4-92 (Wed: 4 hr Post IV)
  BSSG-³⁵(SO₄⁻)₄ PLASMA LEVEL: 72.5 µg/mL
[2]; 5 mg/kg i.v. daily, sample 27-3-92 (Fri: Pre IV), trough
  BSSG-³⁵(SO₄⁻)₄ PLASMA LEVEL: 60.3 µg/mL
[2]; 5 mg/kg i.v. daily, sample 31-3-92 (Tues: Pre IV), trough
  BSSG-³⁵(SO₄⁻)₄ PLASMA LEVEL: 59.0 µg/mL
[2]; 5 mg/kg i.v. daily, subsequent samples of the study period
  24-hour post-dose-trough plasma levels: > 50 µg/mL
[2]; 100 mg (5 mg/kg) i.v. daily Mon-Fri from 16-3-92, sample 24-3-92 (Tues: Pre IV), trough
  BSSG-³⁵(SO₄⁻)₄ PLASMA LEVEL: 33.8 µg/mL
[2]; after 30 days of 5 mg/kg i.v. daily
  autopsy findings: no organ discoloration or change in organ texture
[2]; blood chemistry twice a week, Table 6
  chemical pathology, overall conclusion: no direct proof that the changes occurring in time were due to direct toxicity of the substance
[2]; general decrease during drug administration from base-line 14.8
  Haemoglobin (Hb): 12.5 g/dL
[2]; general decrease during drug administration from base-line 43.4
  haematocrit (Hct): 36.9%
[2]; haematology summary, after the second week of drug administration, still present at the end
  monocyte count: Absolute monocytopaenia
[2]; haematology summary, following drug administration
  total white cell count: slight increase in total white cell count but within normal range
[2]; [6]
  lymphocyte count: transient absolute lymphocytosis
  platelet count: transient decrease in platelet count (but still within normal range)
[2]; haematology summary, supported by biochemical and bone marrow iron findings
  haemolysis (Hb and Hct trend): slight haemolysis
[2]; plasma, 5 mg/kg i.v. daily, sample 7-4-92 (Tues: Pre IV), before treatment 0.004, 0.005
  FREE HAEMOGLOBIN CONCENTRATION: 0.005 mg/dL
[2]; single daily i.v. injection of 5 mg/kg body mass over a month long period
  plasma levels of the drug sustained: 50 to 170 µg/mL
[2]; tissue samples after 30 days of 5 mg/kg i.v. daily
  histological findings: not severe and were fairly non-specific
[2]; trephine biopsy after 30 days, slightly lower than that of an adult man
  bone marrow cellularity: approximately 40%
[2]; ³⁵S isotope in urine samples and faeces, high levels in the bile
  major routes of excretion: via the kidney and the liver
[3]; time 12 weeks
  WBC: 14.7 x10⁹/ℓ
  CD4⁺: 315 µL
  CD8⁺: 432 µL
  CD3⁺: 964 µL
  Lymph.: 2940 µL
[3]; time 17 weeks
  WBC: 14.0 x10⁹/ℓ
  CD4⁺: 763 µL
  CD8⁺: 1066 µL
  CD3⁺: 2035 µL
  Lymph.: 3220 µL
[3]; time 23 weeks
  WBC: 15.5 x10⁹/ℓ
  CD4⁺: 850 µL
  CD8⁺: 1610 µL
  CD3⁺: 2894 µL
  Lymph.: 3990 µL
[4]; 5, 12.5, 25 and 50 µg/mℓ, 10²-, […]
  viral cytopathic effect: completely inhibited
[4]; without virus
  cytopathic effect of the drug alone: no cytopathic effect
[5]; Cells + PHA + 10 µg/mℓ
  % Viability: 80%
[5]; Cells + PHA + 20 µg/mℓ
  % Viability: 85%
[5]; Cells + PHA + 40 µg/mℓ
  % Viability: 82%
[5]; Cells + PHA + 80 µg/mℓ
  % Viability: 83%
[5]; from 10 to 80 µg/mℓ
  viability of test cells, trend with concentration: no tendency to toxicity
